{"source": "patent US20250041286A1", "about": "“CANCER TREATMENT USING KETOTIFEN IN COMBINATION WITH A CHECKPOINT INHIBITOR” (Materia Therapeutics Inc., priority 2021, published 2025)", "key": {"MCA205 tumors [1]": {"system": "MCA205 tumors", "experiment": "Tumor growth (volume, mass) under daily ketotifen, fibrosarcoma model", "type": "in vivo, mouse", "conditions": "ketotifen 1, 5, 10 and 25 mg/kg i.p. once a day for 8 days", "method": "Two mouse models of distinct sarcoma subtypes, fibrosarcoma (MCA205 cells) and osteosarcoma (K7M2wt cells), were used in this study.\nMCA205, a mouse fibrosarcoma cell line (SCC173, Millipore), was cultured in RPMI-1640 expansion medium containing 2 mM L-glutamine, 1 mM sodium pyruvate, 10% fetal bovine serum, 1× non-essential amino acids (TMS-001-C, Sigma), 1% antibiotics (A5955, Sigma), and 1×β-mercaptoethanol. K7M2wt, a mouse osteosarcoma cell line (CRL2836™, ATCC®), was cultured in DMEM expansion medium supplemented with 10% FBS and 1% antibiotics. All cells were maintained at 37° C./5% CO2.\nA fibrosarcoma syngeneic tumor model was generated by subcutaneous implantation of 2.5×10^5 MCA205 cells in 50 μL of serum-free medium into the flank of 6-week old C57BL/6 female mice. A osteosarcoma syngeneic tumor model was generated by implanting K7M2wt tumor chunks into the fat pad of 6-week old BALB/c female mice. […]\nEach treatment group of 4-7 mice received subtherapeutic doses of ketotifen (1, 5, 10 and 25 mg/kg) for a period of 8 days. […] Planar dimensions (x, y) of tumor were monitored every 2-3 days using a digital caliper and tumor volume was estimated from the volume of an ellipsoid and assuming that the third dimension, z, is equal to sqrt(x y)."}, "NIH3T3 cells": {"system": "NIH3T3 cells", "experiment": "NIH3T3 cell viability assessment", "type": "cell-based, murine", "conditions": "ketotifen or control for 2 or 24 hours"}, "MCA205 tumors [2]": {"system": "MCA205 tumors", "experiment": "Tumor-opening experiment (residual solid stress)", "type": "in vivo, mouse", "conditions": "5 mg/kg and 10 mg/kg ketotifen", "method": "Tumor-opening experiments were performed as an indicator of the amount of residual stress contained within the tissue, using the values of opening after cutting."}, "MCA205 tumors [3]": {"system": "MCA205 tumors", "experiment": "Hypoxia study, pimonidazole adduct immunofluorescence", "type": "in vivo, mouse", "method": "(§1) Mice bearing orthotopic MCA205 or K7M2wt sarcoma tumors were injected (intraperitoneal) with 60 mg/kg of pimonidazole HCl at 2 hours prior to tumor removal. Tumors were removed, washed twice in 1×PBS for 10 minutes and incubated with 4% PFA overnight at 4° C. The fixative was aspirated, and samples were washed twice in 1×PBS for 10 min. Tissue samples were dehydrated in successive ethanol steps and xylene followed by paraffin embedding. Serial sections ([…]) of paraffin-embedded tissues were produced using the microtome (Accu-Cut SRM 200 Rotary Microtome, SAKURA), flattened out into water, and allowed to dry overnight at 37° C. Sections were then deparaffinized and rehydrated as routinely processed for histology. Slides were microwaved in TriSodium Citrate, blocked in serum solution, and incubated with mouse anti-pimonidazole RED 549 conjugate antibody (HP7-100Kit, 1:100) overnight at 4° C. The next day slides were washed, nuclei were stained with DAPI, and tissue sections were mounted. Immunofluorescence images of the slides were taken (FIG. 1A), and hypoxic area fraction across different treatment groups was normalized to DAPI staining."}, "MCA205 tumors [4]": {"system": "MCA205 tumors", "experiment": "Flow cytometry of tumor-infiltrating lymphocytes and myeloid cells", "type": "in vivo, mouse", "conditions": "CD11b / Gr-1 flow cytometry", "method": "On day 16 of the doxorubicin-anti-PD-L1 combination study (e.g., the study outlined in FIG. 8A), MCA205 tumors were harvested in 1×HBSS (Biosera), minced to fine fragments, and incubated with 1 mg/mL Collagenase D and 0.5 mg/ml DNase I (Roche) in a 37° C. shaker for 30 minutes. Enzymatic digestion was ceased by the addition of RPMI media containing 10% FBS and 1% antibiotic/antimycotic solution. The tissue homogenates were then filtered through 40 μm cell strainers. Red blood cells were removed by ACK Lysing buffer (A1049201, Gibco) and single cell suspensions were collected and used to a final concentration 1×10^6 cells per sample. Cells were then incubated with fixable viability dye (eBioscience, 1:1000) for 10 minutes on ice for gating of viable cells. Non-specific antibody binding was blocked following incubation with the rat anti-mouse CD16/CD32 mAb (BD Bioscience) for 20 minutes on ice. […]\nFoxp3-AF488 (BD Bioscience) staining was performed following fixation and permeabilization process using the Foxp3/Transcription Factor Staining Buffer Set (00-5523-00, eBioscience). […] Flow cytometry data were obtained using BD FACSLyric flow cytometer and analyzed using BD FACSuite™ Software. […]"}, "K7M2wt tumors": {"system": "K7M2wt tumors", "experiment": "Hypoxia study, pimonidazole adduct immunofluorescence", "type": "in vivo, mouse", "conditions": "10 mg/kg ketotifen", "method": "as §1\nImmunofluorescence staining for Ki67 and CD8, performed as described above, confirmed the activation status of recruited CD8^+ T cells in osteosarcoma tumors (K7M2wt tumors) (FIGS. 9C-9D). […]"}}, "note": "Entries after “also recorded” stand apart in the source; their conditions may differ."}
{"smiles": "CN1CCC(=C2c3ccccc3CC(=O)c3sccc32)CC1", "note": "[ketotifen]", "values": [{"measurement": "antitumor effect (tumor volume and mass)", "setting": "MCA205 tumors [1]", "value": "No subtherepautic dose of ketotifen exhibited an antitumor effect"}, {"measurement": "NIH3T3 cell viability", "setting": "NIH3T3 cells", "value": "did not significantly reduce"}, {"measurement": "tumor opening after cutting (solid stress)", "setting": "MCA205 tumors [2]", "value": "smaller opening"}, {"measurement": "pimonidazole positive fraction (hypoxia)", "setting": "MCA205 tumors [3]; 1 mg/kg, 5 mg/kg and 25 mg/kg ketotifen", "value": "prominent"}, {"measurement": "pimonidazole positive fraction (hypoxia)", "setting": "MCA205 tumors [3]; 10 mg/kg ketotifen, MCA205", "value": "significantly reduced; also recorded: alleviated hypoxia"}, {"measurement": "recruitment of immunosuppressive cell populations (MDSCs)", "setting": "MCA205 tumors [4]", "value": "reducing the recruitment of immunosuppressive cell populations; also recorded: decreasing the polarization of immature myeloid cell population into MDSCs"}, {"measurement": "pimonidazole positive fraction (hypoxia)", "setting": "K7M2wt tumors", "value": "significantly reduced; also recorded: alleviated hypoxia"}]}
